{
  "source": "patent US7700616B2",
  "about": "“Compounds and amyloid probes thereof for therapeutic and imaging uses” (Molecular Neuroimaging, LLC., priority 2006, dated 2010)",
  "key": {"[1]": {"test": "Protein binding (free ligand fraction in plasma)", "assay_type": "in vitro ADME", "conditions": "obtained amyloid probe", "description": "(§1) The labeling of the compounds of the invention was carried out under standard conditions (Na^123/125I, oxidizer, acidic medium) at ambient temperature. Radiochemical yields averaged 35-90%. The labeled compounds were readily purified by reverse-phase HPLC, and their radiochemical purity exceeded 95%."}, "Lipophilicity (LogD)": {"test": "Lipophilicity (LogD)", "assay_type": "physicochemical", "conditions": "pH 7.4; obtained amyloid probe", "description": "as §1"}},
  "data": [
    {"smiles": "CN(C)c1ccc(-n2nc3ccc(I)cc3n2)cc1", "note": "[MNI-187]", "values": [
      {"measurement": "free ligand fraction in plasma", "setting": "[1]", "value": 4, "unit": "%"},
      {"measurement": "logD", "setting": "Lipophilicity (LogD)", "value": 2.7}
    ]}
  ]
}
